This test addresses HDAC-1 (Homo sapiens, UniProt Q13547). Put plainly: Inhibition of HDAC in vitro (fluorogenic acetyl-Gly-Ala-(N-acetyl-Lys)-AMC / trypsin assay). The class given is biochemical. The following applies: HDAC-1 200 pM, 30 min preincubation, pH 7.4; inhibition constants obtained with BatchKi. The method, then:
The HDAC inhibitory activity of the compounds of this invention in vitro was determined as follows.
Measurements were performed in a reaction volume of 100 μL using 96-well assay plates. HDAC-1 (200 pM final concentration) in reaction buffer (50 mM HEPES, 100 mM KCl, 0.001% Tween-20, 5% DMSO, pH 7.4) was mixed with inhibitor at various concentrations and allowed to incubate for 30 min, after which trypsin and acetyl-Gly-Ala-(N-acetyl-Lys)-AMC were added to final concentrations of 50 nM and 25 μM, respectively, to initiate the reaction. Negative control reactions were performed in the absence of inhibitor in replicates of eight.
The reactions were monitored in a fluorescence plate reader. After a 30 min lag time, the fluorescence was measured over a 30 min time frame using an excitation wavelength of 355 nm and a detection wavelength of 460 nm. The increase in fluorescence with time was used as the measure of the reaction rate. Inhibition constants were obtained using the program BatchKi (Kuzmic et al. Anal. Biochem. 286, 45-50, (2000)).

Structures can show the parent of a compound that is named as a salt.

Sequence of HDAC-1 (Q13547 whole entry, species assumed): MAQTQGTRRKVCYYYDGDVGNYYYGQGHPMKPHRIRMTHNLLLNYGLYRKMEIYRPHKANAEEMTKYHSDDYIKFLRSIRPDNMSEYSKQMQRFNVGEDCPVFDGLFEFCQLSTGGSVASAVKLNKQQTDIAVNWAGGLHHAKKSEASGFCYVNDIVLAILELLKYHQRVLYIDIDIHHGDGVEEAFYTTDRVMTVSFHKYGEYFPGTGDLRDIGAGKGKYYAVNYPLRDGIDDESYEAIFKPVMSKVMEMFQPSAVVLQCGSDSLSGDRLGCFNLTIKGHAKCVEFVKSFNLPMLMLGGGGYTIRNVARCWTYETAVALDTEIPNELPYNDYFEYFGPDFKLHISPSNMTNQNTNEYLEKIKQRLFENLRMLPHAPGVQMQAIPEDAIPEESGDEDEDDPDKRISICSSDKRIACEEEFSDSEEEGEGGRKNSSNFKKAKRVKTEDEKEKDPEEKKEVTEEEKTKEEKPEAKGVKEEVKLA

For `CN(C)Cc1c(C(=O)NCC#Cc2ccc(C(=O)NO)cc2)oc2ccccc12` [Compound 22, Table I, N-hydroxy-4-[3-(3-N,N-dimethylaminomethylbenzofiuran-2-ylcarbonylamino)prop-1-ynyl]-benzamide hydrochloride], the affinity corresponds to a Ki of 22 nM.

These data come from US7368572B2, “Acetylene derivatives as inhibitors of histone deacetylase” (Pharmacyclics, Inc., priority 2003, dated 2008).
